From US20250270200A1, “CTPS1 INHIBITORS AND USES THEREOF” (Nimbus Clotho, Inc., priority 2022, published 2025) come the findings set out here.

For orientation: IC50 means the point on the concentration scale where inhibition reaches its midpoint.

In the assay the target is T1, human CTPS1 (Homo sapiens, UniProt P17812).
T1 sequence (P17812 1-591): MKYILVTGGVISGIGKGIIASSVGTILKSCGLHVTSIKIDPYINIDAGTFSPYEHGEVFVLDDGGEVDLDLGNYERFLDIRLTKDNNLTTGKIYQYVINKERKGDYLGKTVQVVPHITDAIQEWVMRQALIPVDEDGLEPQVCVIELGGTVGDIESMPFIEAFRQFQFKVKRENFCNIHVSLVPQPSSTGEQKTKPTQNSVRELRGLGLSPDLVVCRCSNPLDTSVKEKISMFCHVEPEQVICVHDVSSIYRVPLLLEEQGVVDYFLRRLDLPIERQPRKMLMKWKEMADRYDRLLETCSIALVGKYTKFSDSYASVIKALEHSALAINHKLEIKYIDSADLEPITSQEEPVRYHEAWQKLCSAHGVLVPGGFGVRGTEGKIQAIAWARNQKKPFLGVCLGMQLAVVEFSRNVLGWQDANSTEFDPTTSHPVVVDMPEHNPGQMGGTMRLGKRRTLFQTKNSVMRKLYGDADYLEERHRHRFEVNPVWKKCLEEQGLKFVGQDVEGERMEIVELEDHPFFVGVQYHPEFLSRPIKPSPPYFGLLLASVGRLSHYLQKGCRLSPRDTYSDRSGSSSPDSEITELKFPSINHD
As to the kind of experiment: ADP-Glo assay, human CTPS1 enzyme inhibition. It is filed as biochemical. The following applies: wild-type human CTPS1, 25 nM enzyme; ADP-Glo; read-out: ADP-Glo_WT_hCTPS1—25 nM_IC50 (IC50). On the procedure:
The enzyme inhibitory activities of the compounds of the invention against the target of interest were determined using the ADP-Glo™ assay (Promega). Assays for human CTPS1 and CTPS2 were performed in 1× assay buffer containing 50 mM HEPES (Life Technologies), 10 mM Mg2+, 5 mM KCl, 2 mM DTT, 0.01% F-127, pH to 7.4 accordingly. All reagents are from Sigma-Aldrich, unless specified otherwise. Purified human full length active N-terminal FLAG-8×HIS-TEV tagged CTPS1 (UniprotKB—P17812, […]-CTPS1[1-591]) was generated using a mammalian expression system at Viva Biotech (Shanghai) Ltd.
Purified human CTPS1 protein was prepared in 1× assay buffer to the final working protein concentration required for the reaction. A 2.5 μL volume per well of human CTPS 1 protein was mixed with 0.1 μL per well of test compound dissolved in DMSO and pre-incubated at 25 degrees C. for 10 minutes. 2.5 μL per well of the reaction precursors ATP (UltraPure ATP from ADP-Glo™ kit) and UTP were then added and pre-incubated for an additional 10 minutes at 25 degrees C. Finally, the reaction was initiated by the addition of 5 μL of the reaction precursors L-glutamine and GTP. The final concentration of all reaction components in the assay: ATP (120 μM), UTP (160 μM), GTP (60 μM), L-Glutamine (100 μM), DMSO (1%), hCTPS1 (25 nM). This mixture was incubated for an appropriate amount of time within the determined linear phase of the reaction at 25 degrees C. under sealed plate conditions with constant agitation at 500 revolutions per minute (rpm). ADP-Glo™ reagent was added for 60 minutes (10 μL per well) and subsequently ADP-Glo™ development reagent was added for 60 minutes (20 μL per well) prior to signal detection in a microplate reader (Envision Multilabel Reader, Perkin Elmer). Following each reagent addition over the course of the assay, assay plates were pulse centrifuged for 1 minute at 1000 rpm.
The enzyme converts ATP to ADP and the ADP-Glo™ reagent subsequently depletes any remaining ATP in the reaction system. The ADP-Glo™ detection reagents converts the ADP that has been produced by the enzyme back into ATP, which is then utilized as a substrate together with luciferin for the enzyme luciferase. Light generated by this chemiluminescent reaction is quantified and is directly proportional to the amount of ADP produced by the CTPS1 enzyme reaction. […]
For orientation: ADP-Glo turns the ADP formed in a reaction into a luminescent signal.
For the molecule `CCOc1cncc(-c2ccc(C(=O)N[C@H](c3cc(NS(=O)(=O)C4CC4)ccn3)[C@H]3CCCO3)nc2)n1` [I-67, N-((R)-(4-(cyclopropanesulfonamido)pyridin-2-yl)((R)-tetrahydrofuran-2-yl)methyl)-5-(6-ethoxypyrazin-2-yl)picolinamide], the IC50 was 25 to 50 nM.
With `CCOc1cncc(-c2cnc(C(=O)N[C@@H](c3cc(NS(=O)(=O)C4CC4)ccn3)[C@@H]3CN(C)CCO3)s2)n1` [I-101, N-((S)-(4-(cyclopropanesulfonamido)pyridin-2-yl)((S)-4-methylmorpholin-2-yl)methyl)-5-(6-ethoxypyrazin-2-yl)thiazole-2-carboxamide] the figure was 5 to 25 nM.
With `CCOc1cncc(-c2cnc(C(=O)N[C@@H](c3cc(NS(=O)(=O)C4CC4)ccn3)[C@@H]3CCN(C4CCCC4)C3)s2)n1` [I-95, N-((R)-((R)-1-cyclopentylpyrrolidin-3-yl)(4-(cyclopropanesulfonamido)pyridin-2-yl)methyl)-5-(6-ethoxypyrazin-2-yl)thiazole-2-carboxamide] the figure was 5 to 25 nM; with `CCOc1cncc(-c2cnc(C(=O)N[C@@H](CN3CC4(CCC4)C3)c3cc(NS(=O)(=O)C4CC4)ccn3)s2)n1` [I-153, (S)-N-(1-(4-(cyclopropanesulfonamido)pyridin-2-yl)-2-(2-azaspiro[3.3]heptan-2-yl)ethyl)-5-(6-ethoxypyrazin-2-yl)thiazole-2-carboxamide], 25 to 50 nM.
For the molecule `O=C(N[C@]1(c2cc(NS(=O)(=O)C3CC3)ccn2)C[C@H](O)C1)c1ncc(-c2cnn3ccc(Cl)cc23)s1` [I-89, 5-(5-chloropyrazolo[1,5-a]pyridin-3-yl)-N-((1s,3s)-1-(4-(cyclopropanesulfonamido)pyridin-2-yl)-3-hydroxycyclobutyl)thiazole-2-carboxamide], the IC50 is 5 to 25 nM.
On to `CCOc1cncc(-c2cnc(C(=O)N[C@@H](COC)c3cccc(NS(=O)(=O)C(F)F)c3)s2)n1` [I-293, (R)-N-(1-(3-((difluoromethyl)sulfonamido)phenyl)-2-methoxyethyl)-5-(6-ethoxypyrazin-2-yl)thiazole-2-carboxamide], for which the IC50 was in the range of 5 to 25 nM.
In the case of `CCOc1cncc(-c2cnc(C(=O)N[C@@H](c3cccc(NS(=O)(=O)C(F)F)c3)[C@@H](C)CO)s2)n1` [I-244, N-((1R,2R)-1-(3-((difluoromethyl)sulfonamido)phenyl)-3-hydroxy-2-methylpropyl)-5-(6-ethoxypyrazin-2-yl)thiazole-2-carboxamide], the IC50 was ≤ 5 nM.
Turning to `CCOc1cncc(-c2cnc(C(=O)N[C@@H](c3cc(NS(=O)(=O)C4CC4)ccn3)[C@@H]3CCN(CCF)C3)s2)n1` [I-109, N-((R)-(4-(cyclopropanesulfonamido)pyridin-2-yl)((R)-1-(2-fluoroethyl)pyrrolidin-3-yl)methyl)-5-(6-ethoxypyrazin-2-yl)thiazole-2-carboxamide], the IC50 was 5 to 25 nM.
As for `CCOc1cncc(-c2cnc(C(=O)N[C@@H](c3cc(NS(=O)(=O)C4CC4)ccn3)[C@@H]3COCCO3)s2)n1` [I-76, N-((S)-(4-(cyclopropanesulfonamido)pyridin-2-yl)((R)-1,4-dioxan-2-yl)methyl)-5-(6-ethoxypyrazin-2-yl)thiazole-2-carboxamide], the IC50 was ≤ 5 nM.
Regarding `CCOc1cncc(-c2cnc(C(=O)N[C@H](COC)c3cccc(NS(=O)(=O)C(F)F)c3)s2)n1` [I-292, (S)-N-(1-(3-((difluoromethyl)sulfonamido)phenyl)-2-methoxyethyl)-5-(6-ethoxypyrazin-2-yl)thiazole-2-carboxamide], the IC50 fell in the range of 5 to 25 nM.
As to `CCOc1cncc(-c2cnc(C(=O)N(C)[C@@H](CN3CCOCC3)c3cc(NS(=O)(=O)C4CC4)ccn3)s2)n1` [I-141, (S)-N-(1-(4-(cyclopropanesulfonamido)pyridin-2-yl)-2-morpholinoethyl)-5-(6-ethoxypyrazin-2-yl)-N-methylthiazole-2-carboxamide], the IC50 is 50 to 100 nM.
